In PMC10987128, “A Natural Small Molecule Mitigates Kidney Fibrosis by Targeting Cdc42‐mediated GSK‐3β/β‐catenin Signaling” (Advanced Science, 2024):
pKd: −log10 of the molar value.

Experiments:
[1] = target: T1, Cdc42 (cell division cycle 42) (Homo sapiens, UniProt P60953); experiment: SPR (Biacore 8K, Cdc42 immobilized on CM5 chip), positive control; type: binding
T1 construct: recombinant Cdc42 protein (230-00660-100, RayBio)
Text: SPR (Biacore 8K, Cdc42 immobilized on CM5 chip), positive control on Cdc42 (cell division cycle 42) | We used ZCL278, a well‐known Cdc42 binding compound, as a positive control in SPR experiments

[2] = target: T1, Cdc42 (cell division cycle 42); experiment: SPR (Biacore 8K, Cdc42 immobilized on CM5 chip); supported by CETSA and TPP in NRK-49F cells; type: binding

T1 sequence (P60953 1-188): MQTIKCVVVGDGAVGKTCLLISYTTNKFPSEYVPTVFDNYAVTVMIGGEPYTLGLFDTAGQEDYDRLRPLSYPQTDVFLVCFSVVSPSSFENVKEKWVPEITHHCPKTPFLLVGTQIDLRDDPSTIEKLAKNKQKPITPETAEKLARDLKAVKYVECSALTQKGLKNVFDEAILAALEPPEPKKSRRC

| pKd [1] | Compound | pKd [2] |
| --- | --- | --- |
| 4.73 | Cc1cc(C)nc(NS(=O)(=O)c2ccc(NC(=S)NC(=O)COc3ccc(Br)cc3Cl)cc2)n1 [ZCL278] |  |
|  | C=C(C)[C@]12C[C@@H](C)[C@]34OC5(CCCCCCC[C@H](C)[C@@H]6[C@@H]3[C@@](O)(C(=O)[C@@]6(C)O)[C@H](O)[C@@]3(CO)O[C@H]3[C@H]4[C@H]1O5)O2 [compound 15, daphnepedunin A] | 4.81 |
